# Experimental data: US9498483B2, “2,3,5-trisubstituted thiophene compounds and uses thereof” (priority 2010, dated 2016)
# pIC50: −log10 of the molar value.
# How the values were obtained:
# [1] = biological target: T1, HCV polymerase (Hepatitis C virus genotype 1b, UniProt Q9WMX2); assay: Polymerase assay of Biological Example 1 (IC50 values of Table 3); assay type: biochemical; settings: IC50 values of Table 3, polymerase assay of Biological Example 1; read-out: NS5B-enzyme3
# T1 construct: (His)6 (C); made in house; host or cells: XL-1 cells (E. coli, by own knowledge)
# [2] = system: HCV replicon I389luc-ubi-neo/NS3-3′/ET in ET (Huh-lucubineo-ET) cells; assay: Replicon assay (Biological Example 2), luciferase readout; assay type: cell-based; settings: Hepatitis C virus
# Procedure, shortened: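 EC50 values come from Hill fits of % inhibition of replicon-driven firefly luciferase, relative to no-compound wells. Compounds were serially diluted (10 points, 3-fold, 0.1 nM–50 μM final, 0.5% DMSO) onto ET replicon cells and read after 48 h.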
# [3] = ET cells, luciferase activity 48 hours after compound
smiles,measurement,setting,value
"CC(C)(C)C#Cc1cc(N2C(=O)CN(S(=O)(=O)c3ccc(OC(F)(F)F)cc3)C[C@H]2C2CCCCC2)c(C(=O)O)s1 [Compound 223, 3-[(R)-2-Cyclohexyl-6-oxo-4-(4-trifluoromethoxy-benzenesulfonyl)-piperazin-1-yl]-5-(3,3-dimethyl-but-1-ynyl)-thiophene-2-carboxylic acid]",pIC50,[1],8.05
same,pIC50,[2]; between 100 nM and 5.0 uM,5.30 to 7.00
"C[C@@H]1COCCN1c1ccc(S(=O)(=O)N2CC(=O)N(c3cc(-c4ccccc4)sc3C(=O)O)[C@H](C3CCCCC3)C2)cn1 [Compound 225, 3-{(R)-2-Cyclohexyl-4-[6-((R)-3-methyl-morpholin-4-yl)-pyridine-3-sulfonyl]-6-oxo-piperazin-1-yl}-5-phenyl-thiophene-2-carboxylic acid]",pIC50,[1],9.00
same,pIC50,[2]; [3],≥ 7.00
"C[C@@H]1COCCN1c1ccc(S(=O)(=O)N2CC(=O)N(c3cc(-c4ccc(Cl)cc4)sc3C(=O)O)[C@H](C3CCCCC3)C2)cn1 [Compound 226, 5-(4-Chloro-phenyl)-3-{(R)-2-cyclohexyl-4-[6-((R)-3-methyl-morpholin-4-yl)-pyridine-3-sulfonyl]-6-oxo-piperazin-1-yl}-thiophene-2-carboxylic acid]",pIC50,[1],8.05
same,pIC50,[2]; [3],≥ 7.00
"O=C(O)c1sc(-c2ccc(Cl)cc2)cc1N1C(=O)CN(S(=O)(=O)c2ccc(N3CC4CCC(C3)O4)nc2)C[C@H]1C1CCCCC1 [Compound 227, 5-(4-Chloro-phenyl)-3-{(R)-2-cyclohexyl-4-[6-(8-oxa-3-aza-bicyclo[3.2.1]oct-3-yl)-pyridine-3-sulfonyl]-6-oxo-piperazin-1-yl}-thiophene-2-carboxylic acid]",pIC50,[1],9.00
same,pIC50,[2]; [3],≥ 7.00
"O=C(O)c1sc(-c2ccc(Cl)cc2)cc1N1C(=O)CN(S(=O)(=O)c2ccc(N3CC4CC3CO4)nc2)C[C@H]1C1CCCCC1 (stereo partly drawn) [Compound 229, 5-(4-Chloro-phenyl)-3-{(R)-2-cyclohexyl-4-[6-(2-oxa-5-aza-bicyclo[2.2.1]hept-5-yl)-pyridine-3-sulfonyl]-6-oxo-piperazin-1-yl}-thiophene-2-carboxylic acid]",pIC50,[1],9.00
same,pIC50,[2]; [3],≥ 7.00
"CC(C)(C)C#Cc1cc(N2C(=O)CN(S(=O)(=O)c3ccc(C(F)(F)F)nc3)C[C@H]2C2CCCCC2)c(C(=O)O)s1 [Compound 230, 3-[(R)-2-Cyclohexyl-6-oxo-4-(6-trifluoromethyl-pyridine-3-sulfonyl)-piperazin-1-yl]-5-(3,3-dimethyl-but-1-ynyl)-thiophene-2-carboxylic acid]",pIC50,[1],8.22
same,pIC50,[2]; between 100 nM and 5.0 uM,5.30 to 7.00
"O=C(O)c1sc(-c2ccc(Cl)cc2)cc1N1C(=O)CN(S(=O)(=O)c2ccc(N3CCCC3)cc2)C[C@H]1C1CCCCC1 [Compound 231, 5-(4-Chloro-phenyl)-3-[(R)-2-cyclohexyl-6-oxo-4-(4-pyrrolidin-1-yl-benzenesulfonyl)-piperazin-1-yl]-thiophene-2-carboxylic acid]",pIC50,[1],9.00
same,pIC50,[2]; [3],≥ 7.00
"O=C(O)c1sc(-c2ccc(F)cc2)cc1N1C(=O)CN(S(=O)(=O)c2ccc(N3CCCC3)nc2)C[C@H]1C1CCCCC1 [Compound 232, 3-[(R)-2-Cyclohexyl-6-oxo-4-(6-pyrrolidin-1-yl-pyridine-3-sulfonyl)-piperazin-1-yl]-5-(4-fluoro-phenyl)-thiophene-2-carboxylic acid]",pIC50,[1],9.00
same,pIC50,[2]; [3],≥ 7.00
"O=C(O)c1sc(-c2ccc(Cl)cc2)cc1N1C(=O)CN(S(=O)(=O)c2ccc(N3CCCCC3)cc2)C[C@H]1C1CCCCC1 [Compound 233, 5-(4-Chloro-phenyl)-3-[(R)-2-cyclohexyl-6-oxo-4-(4-piperidin-1-yl-benzenesulfonyl)-piperazin-1-yl]-thiophene-2-carboxylic acid]",pIC50,[1],8.70
same,pIC50,[2]; [3],≥ 7.00
"C[C@@H]1CCCN1c1ccc(S(=O)(=O)N2CC(=O)N(c3cc(-c4ccc(Cl)cc4)sc3C(=O)O)[C@H](C3CCCCC3)C2)cc1 [Compound 234, 5-(4-Chloro-phenyl)-3-{(R)-2-cyclohexyl-4-[4-((R)-2-methyl-pyrrolidin-1-yl)-benzenesulfonyl]-6-oxo-piperazin-1-yl}-thiophene-2-carboxylic acid]",pIC50,[1],9.00
same,pIC50,[2]; [3],≥ 7.00
"CC(C)(C)C#Cc1cc(N2C(=O)COC[C@H]2C2CCCCC2)c(C(=O)O)s1 [Compound 236, 3-((R)-3-Cyclohexyl-5-oxo-morpholin-4-yl)-5-(3,3-dimethyl-but-1-ynyl)-thiophene-2-carboxylic acid]",pIC50,[1],8.52
same,pIC50,[2]; [3],≥ 7.00
"C[C@H]1[C@@H](C2CCCCC2)N(c2cc(C#CC(C)(C)C)sc2C(=O)O)C(=O)N1C [Compound 237, 3-((4S,5R)-5-Cyclohexyl-3,4-dimethyl-2-oxo-imidazolidin-1-yl)-5-(3,3-dimethyl-but-1-ynyl)-thiophene-2-carboxylic acid]",pIC50,[1],7.38
same,pIC50,[2]; between 100 nM and 5.0 uM,5.30 to 7.00
"CC(C)(C)C#Cc1cc(N2C(=O)CN(S(=O)(=O)c3ccc(C#N)cc3)C[C@H]2C2CCCCC2)c(C(=O)O)s1 [Compound 238, 3-[(R)-4-(4-Cyano-benzenesulfonyl)-2-cyclohexyl-6-oxo-piperazin-1-yl]-5-(3,3-dimethyl-but-1-ynyl)-thiophene-2-carboxylic acid]",pIC50,[1],8.70
same,pIC50,[2]; [3],≥ 7.00
"CC(C)(C)C#Cc1cc(N2C(=O)CN(S(=O)(=O)c3cccc(F)c3)C[C@H]2C2CCCCC2)c(C(=O)O)s1 [Compound 239, 3-[(R)-2-Cyclohexyl-4-(3-fluoro-benzenesulfonyl)-6-oxo-piperazin-1-yl]-5-(3,3-dimethyl-but-1-ynyl)-thiophene-2-carboxylic acid]",pIC50,[1],8.70
same,pIC50,[2]; [3],≥ 7.00
"CC(C)(C)C#Cc1cc(N2C(=O)CN(S(=O)(=O)c3cn[nH]c3)C[C@H]2C2CCCCC2)c(C(=O)O)s1 [Compound 241, 3-[(R)-2-Cyclohexyl-6-oxo-4-(1H-pyrazole-4-sulfonyl)-piperazin-1-yl]-5-(3,3-dimethyl-but-1-ynyl)-thiophene-2-carboxylic acid]",pIC50,[1],9.00
same,pIC50,[2]; [3],≥ 7.00
"CC(C)(C)C#Cc1cc(N2C(=O)CN(S(=O)(=O)c3cccc(Cl)c3)C[C@H]2C2CCCCC2)c(C(=O)O)s1 [Compound 242, 3-[(R)-4-(3-Chlorobenzenesulfonyl)-2-cyclohexyl-6-oxo-piperazin-1-yl]-5-(3,3-dimethyl-but-1-ynyl)-thiophene-2-carboxylic acid]",pIC50,[1],8.30
same,pIC50,[2]; between 100 nM and 5.0 uM,5.30 to 7.00
"CC(C)(C)C#Cc1cc(N2C(=O)CN(S(=O)(=O)c3ccc(F)cc3)C[C@H]2C2CCCCC2)c(C(=O)O)s1 [Compound 243, 3-[(R)-2-Cyclohexyl-4-(4-fluoro-benzenesulfonyl)-6-oxo-piperazin-1-yl]-5-(3,3-dimethyl-but-1-ynyl)-thiophene-2-carboxylic acid]",pIC50,[1],8.70
same,pIC50,[2]; [3],≥ 7.00
"Cc1nc(C)c(S(=O)(=O)N2CC(=O)N(c3cc(C#CC(C)(C)C)sc3C(=O)O)[C@H](C3CCCCC3)C2)s1 [Compound 244, 3-[(R)-2-Cyclohexyl-4-(2,4-dimethyl-thiazole-5-sulfonyl)-6-oxo-piperazin-1-yl]-5-(3,3-dimethyl-but-1-ynyl)-thiophene-2-carboxylic acid]",pIC50,[1],8.70
same,pIC50,[2]; [3],≥ 7.00
"CC(C)(C)C#Cc1cc(N2C(=O)CN(S(=O)(=O)C3CC3)C[C@H]2C2CCCCC2)c(C(=O)O)s1 [Compound 245, 3-((R)-2-Cyclohexyl-4-cyclopropanesulfonyl-6-oxo-piperazin-1-yl)-5-(3,3-dimethyl-but-1-ynyl)-thiophene-2-carboxylic acid]",pIC50,[1],8.30
same,pIC50,[2]; between 100 nM and 5.0 uM,5.30 to 7.00
"COc1ccc(S(=O)(=O)N2CC(=O)N(c3cc(C#CC(C)(C)C)sc3C(=O)O)[C@H](C3CCCCC3)C2)cc1F [Compound 246, 3-[(R)-2-Cyclohexyl-4-(3-fluoro-4-methoxy-benzenesulfonyl)-6-oxo-piperazin-1-yl]-5-(3,3-dimethyl-but-1-ynyl)-thiophene-2-carboxylic acid]",pIC50,[1],8.40
same,pIC50,[2]; [3],≥ 7.00
"CC(C)(C)C#Cc1cc(N2C(=O)CN(S(=O)(=O)c3c[nH]cn3)C[C@H]2C2CCCCC2)c(C(=O)O)s1 [Compound 247, 3-[(R)-2-Cyclohexyl-4-(1H-imidazole-4-sulfonyl)-6-oxo-piperazin-1-yl]-5-(3,3-dimethyl-but-1-ynyl)-thiophene-2-carboxylic acid]",pIC50,[1],8.70
same,pIC50,[2]; [3],≥ 7.00
"Cc1nc(S(=O)(=O)N2CC(=O)N(c3cc(C#CC(C)(C)C)sc3C(=O)O)[C@H](C3CCCCC3)C2)cn1C [Compound 248, 3-[(R)-2-Cyclohexyl-4-(1,2-dimethyl-1H-imidazole-4-sulfonyl)-6-oxopiperazin-1-yl]-5-(3,3-dimethyl-but-1-ynyl)-thiophene-2-carboxylic acid]",pIC50,[1],8.70
same,pIC50,[2]; [3],≥ 7.00
"CC(C)(C)C#Cc1cc(N2C(=O)CN(S(=O)(=O)c3ccccc3OC(F)(F)F)C[C@H]2C2CCCCC2)c(C(=O)O)s1 [Compound 249, 3-[(R)-2-Cyclohexyl-6-oxo-4-(2-trifluoromethoxy-benzenesulfonyl)-piperazin-1-yl]-5-(3,3-dimethyl-but-1-ynyl)-thiophene-2-carboxylic acid]",pIC50,[1],7.72
same,pIC50,[2]; between 100 nM and 5.0 uM,5.30 to 7.00
"CC(C)(C)C#Cc1cc(N2C(=O)CN(S(=O)(=O)c3ccc(C(F)(F)F)cc3)C[C@H]2C2CCCCC2)c(C(=O)O)s1 [Compound 250, 3-[(R)-2-Cyclohexyl-6-oxo-4-(4-trifluoromethyl-benzenesulfonyl)-piperazin-1-yl]-5-(3,3-dimethyl-but-1-ynyl)-thiophene-2-carboxylic acid]",pIC50,[1],8.26
same,pIC50,[2]; [3],≥ 7.00
"CC(C)(C)C#Cc1cc(N2C(=O)CN(S(=O)(=O)c3c(F)cccc3F)C[C@H]2C2CCCCC2)c(C(=O)O)s1 [Compound 251, 3-[(R)-2-Cyclohexyl-4-(2,6-difluoro-benzenesulfonyl)-6-oxo-piperazin-1-yl]-5-(3,3-dimethyl-but-1-ynyl)-thiophene-2-carboxylic acid]",pIC50,[1],8.40
same,pIC50,[2]; [3],≥ 7.00
